Results on 2 compounds are retold here after paper PMC9313426, “CDI Exerts Anti-Tumor Effects by Blocking the FoxM1-DNA Interaction” (Biomedicines, 2022).

This experiment addresses T1, FoxM1 (Homo sapiens, UniProt Q08050).
T1 sequence (Q08050 222-360 limits assumed): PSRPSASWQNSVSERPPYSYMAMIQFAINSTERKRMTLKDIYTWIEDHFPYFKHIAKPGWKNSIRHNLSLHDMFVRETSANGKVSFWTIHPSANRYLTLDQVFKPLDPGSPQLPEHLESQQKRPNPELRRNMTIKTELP
The experiment is described as follows: TR-FRET FoxM1-DBD/biotinylated dsDNA binding inhibition assay.

With `CC(C)C1=C[C@@]23CC[C@@H]4[C@](C)(CCC[C@@]4(C)C(=O)O)[C@H]2C[C@@H]1[C@H]1C(=O)C=C(Cl)C(=O)[C@H]13` [CDI, (4aR,4bS,6aR,7R,10aR,10bR,12R,12aR)-3-Chloro-4,4a,5,6,6a,7,8,9,10,10a,10b,11,12,12a-tetradecahydro-7,10a-dimethyl-13-(1-methylethyl)-1,4-dioxo-1H-4b,12-ethenochrysene-7-carboxylic acid], the IC50 was 4.9 ± 1.5 µM.

Consider `Nc1c(C(=O)Nc2ccc(F)cc2)sc2nc(-c3cccs3)cc(C(F)(F)F)c12` [FDI-6], for which the half-inhibitory concentration (IC50) stood at 3.7 ± 0.9 µM.
